In series [1] the test system is MCF-7 cells. Kind of series: AAF-Glo released protease (cell death) assay. It is filed as cell-based, human. Conditions: MCF-7, 30 μM, 24 to 120 hours, vs DMSO. On the procedure:
(§1) Adherent cells were seeded in two identical white 96-well plates (Costar) in 100 μL of their respective media at varying densities to achieve 80% to 90% confluency at the end of the assay. After 24 hours, the media were aspirated and the cells were treated with 30 μM C-6 or a matched 0.03% (v/v) DMSO vehicle control in the corresponding media containing 2% FBS. For suspension cultures, cells were first seeded in 75 μL of media. At the start of treatment, 25 μL of a 4× concentration of C-6 or a matched (v/v) DMSO vehicle control was added to each well such that the final volume in each well was 100 μL and the final concentration of C-6 was 30 μM. For the caspase activity assays, additional wells were treated with 1 μM staurosporine. After culturing for the appropriate amount of time, either the AAF-Glo or Caspase-Glo assays (Promega, Madison, WI, USA) were performed on one 96-well plate according to the manufacturer's instructions. For the Caspase-Glo assay, cell viability was determined for the additional 96-well plate utilizing the ATPlite 1step assay system (Perkin Elmer) according to the manufacturer's instructions. For the AAF-Glo assay, the total protein in each well of the additional plate was measured using the BCA protein assay kit (Peirce, Rockford, IL, USA). Luminescence measurements were acquired utilizing a Perkin Elmer 2104 EnVision plate reader. Raw luminescence values for each assay were normalized to the DMSO vehicle control wells. The values for the Caspase-Glo or AAF-Glo assays were then normalized to the ATPlite values or total protein, respectively, in order to account for differences in cell numbers and were plotted as an average ± SD of four wells per condition.

The subject of series [2] is MCF-10A cells. Kind of series: AAF-Glo released protease (cell death) assay. In kind it is cell-based, human. To be noted: 30 μM, 24 to 120 hours, vs DMSO. On the procedure:
as §1

For series [3], the system named is PE cells from three different patients. Kind of series: AAF-Glo released protease (cell death) assay. It is filed as cell-based, human. Conditions: 30 μM, 24 to 120 hours, vs DMSO. On the procedure: as §1
Series [4] deals with MDA-MB-231 cells. Description: AAF-Glo released protease (cell death) assay. To be noted: MDA-MB-231, 30 μM, 24 to 120 hours. It is filed as cell-based, human. On the procedure: as §1
The nature of series [5]: Chemical screen, difference in ATP viability between normal and tumor cells. It is filed as cell-based. Conditions: human, four days, duplicate, read-out: difference in viability between the hTERT-HMEC and PE1007070 cells (selectivity). On the procedure: The hTERT-HMEC and PE1007070 cells were seeded in white 96-well plates (Costar) in 100 μL of modified M87 media at varying densities to achieve 80% to 90% confluency at the end of the assay. The 10 mM DMSO stock solutions from the 560-compound University of Utah Department of Chemistry library were diluted with modified M87 media utilizing an EP Motion 5075 (Eppendorf North America) liquid handler. In addition, corresponding DMSO vehicle and doxorubicin controls were prepared in modified M87 media. After the cells were cultured for 24 hours, 80 μL of media was aspirated from each well. […] After four days of treatment, viability was determined utilizing the ATPlite 1step assay system (Perkin Elmer) according to the manufacturer's instructions. Luminescence measurements were acquired utilizing a Perkin Elmer 2104 EnVision plate reader. Raw luminescence values were normalized to the DMSO vehicle control wells for each plate and cell type. […]
Reagent/ compound dispensing system Eppendorf EP Motion 5075 (Compound dilution) Detection instrument and software Luminescence was detected with a Perkin Elmer Envision 2104 Assay validation/QC 20 µM Doxorubicin was used as a positive control and used to […]
Additional comments Selectivity of compounds was determined by subtracting the average viability of the PE1007070 from the hTERT-HMEC cells […]

Series [6] relates to PE1007070 cells. Description: Live/dead assay, monolayer. It is filed as cell-based, human. To be noted: 20 μM, five days, vs DMSO. On the procedure:
(§2) The hTERT-HMEC and PE1007070 cells were seeded in black wall clear bottom 96-well plates (Greiner Bio-one, Monroe, NC, USA) in 100 μL of modified M87 media at varying densities to achieve 80% to 90% confluency at the end of the assay. After 24 hours, the media were aspirated and the cells were treated with 20 μM C-6 or the corresponding 0.02% (v/v) DMSO vehicle control. After culturing for five days, the viability and cytotoxicity was determined with the Live/dead assay (Life Technologies) according to the manufacturer's instructions. Briefly, the media were aspirated and the cells were treated with 4 μM Calcein-AM and 8 μM Ethidium homodimer-1 diluted in (D)MEM/F12 for 30 minutes at 37°C. Subsequent imaging was performed with an IX81 microscope (Olympus, Center Valley, PA, USA) running Slide Book 5.0 software (Intelligent Imaging Innovations, Denver, CO, USA).

Series [7] concerns hTERT-HMEC cells. Kind of series: Live/dead assay, monolayer. In kind it is cell-based, human. Conditions: 20 μM, five days. On the procedure:
as §2

Series [8] in a line: Solubility (stated property). In kind it is physicochemical.

Molecules are shown by their SMILES.

As for `COc1cc(OC)cc(C(C)c2ccc(NC(=O)OC(C)(C)C)cc2)c1` (centres unmarked) [C-6], the “relative AAF-Glo activity” value was “significant increase” in series [1], “did not cause an increase” in series [2], “significant increase” in series [3] and “did not have increased AAF-Glo activity” in series [4]. In addition, the viability difference, normal minus tumor cells (selectivity) at 4 days, 20 µM in series [5] turned out to be 62%. Besides, the “number of dead cells” value in series [6] was “led to an increase in the number of dead cells”. Moreover, the “morphology and dead (ethidium positive) cells” value in series [7] is “did not induce a gross morphological phenotype in the hTERT-HMECs or a significant increase in dead (ethidium bromide positive) cells”. In addition, in series [8], the solubility entry is given as “poor solubility”.

Values taken from publication PMC4028696, “Development of a screen to identify selective small molecules active against patient-derived metastatic and chemoresistant breast cancer cells” (Breast Cancer Research : BCR, 2013).
